Where two headings read alike, the source gives them in different places. Ends that are not written are not given here.

The target of one assay is T1, human GIP receptor (Homo sapiens, UniProt P48546).
T1 construct: expressed in transfected cells; host or cells: HEK293 (HEK-GIPR), membranes
T1 sequence (P48546 22-466): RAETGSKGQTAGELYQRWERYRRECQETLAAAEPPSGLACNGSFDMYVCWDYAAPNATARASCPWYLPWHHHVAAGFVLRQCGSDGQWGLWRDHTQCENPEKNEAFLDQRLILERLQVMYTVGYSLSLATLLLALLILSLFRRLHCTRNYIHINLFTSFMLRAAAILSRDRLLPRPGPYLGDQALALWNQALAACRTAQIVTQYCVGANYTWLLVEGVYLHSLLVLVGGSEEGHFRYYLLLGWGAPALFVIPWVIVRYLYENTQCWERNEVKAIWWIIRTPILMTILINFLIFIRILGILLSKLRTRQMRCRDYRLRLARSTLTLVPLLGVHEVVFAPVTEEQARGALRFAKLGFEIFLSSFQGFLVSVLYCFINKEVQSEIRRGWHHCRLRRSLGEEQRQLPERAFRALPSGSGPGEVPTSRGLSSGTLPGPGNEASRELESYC
Briefly: biochemical. Format: binding.

The format of assay [1] is in vivo, NIH/Swiss mice. To be noted: 30 nmol/kg.
Method: (§1) In FIG. 3A, bars represent mean±sd, n=6-10. […] Gavage (1.5 g/kg) was given at t=0, Sample was taken at t=30 min. […] In FIG. 3B, points represent mean±sem, n=8-15.
Peptide was injected IP at t=−5 minutes into 4-hour fasted NIH/Swiss female mice. […] In FIG. 17 points represent mean+/−sem. […] Samples were taken at t=60, t=120 and t=180.
Assay [2] is classed as in vivo, NIH/Swiss mice. To be noted: 80 nmol/kg, AUC240.
Method: as §1
Points represent mean±sem.
Setting [3] is: read-out: GIP RBA (% Inh 10 nM).
[4] abbreviates: read-out: (% Inh 10 nm, GIP-LF Assay).

On to `CC[C@H](C)[C@H](NC(=O)[C@H](CO)NC(=O)[C@H](Cc1ccc(O)cc1)NC(=O)[C@H](CC(=O)O)NC(=O)[C@H](CO)NC(=O)[C@@H](NC(=O)[C@H](Cc1ccccc1)NC(=O)[C@@H](NC(=O)CNC(=O)[C@H](CCC(=O)O)NC(=O)[C@H](CO)NC(=O)[C@@H](N)Cc1ccc(O)cc1)[C@@H](C)O)[C@@H](C)CC)C(=O)N[C@@H](C)C(=O)N[C@@H](CCSC)C(=O)N[C@@H](CC(=O)O)C(=O)N[C@@H](CCCCN)C(=O)N[C@H](C(=O)N[C@@H](Cc1c[nH]cn1)C(=O)N[C@@H](CCC(N)=O)C(=O)N[C@@H](CCC(N)=O)C(=O)N[C@@H](CC(=O)O)C(=O)N[C@@H](Cc1ccccc1)C(=O)N[C@H](C(=O)N[C@@H](CC(N)=O)C(=O)N[C@@H](Cc1c[nH]c2ccccc12)C(=O)N[C@@H](CC(C)C)C(=O)N[C@@H](CC(C)C)C(=O)N[C@@H](C)C(=O)N[C@@H](CCC(N)=O)C(=O)N[C@@H](CCCCN)C(=O)N1CCC[C@H]1C(=O)N[C@@H](CCCCN)C(=O)N[C@@H](CCCCN)C(=O)N[C@H](C(=O)N[C@@H](CCCNC(=N)N)C(=O)N[C@@H](Cc1ccc(O)cc1)C(=O)N[C@@H](CO)C(N)=O)[C@@H](C)CC)C(C)C)[C@@H](C)CC` [0601GIP4538], for which the inhibition at 0.01 µM on human GIP receptor (setting [3]) was found to be 94.2%. The “OGTT/GL (%)” value in assay [1] is on record as −9, 30%.
`CC[C@H](C)[C@H](NC(=O)[C@H](CO)NC(=O)[C@H](Cc1ccc(O)cc1)NC(=O)[C@H](CC(=O)O)NC(=O)[C@H](CO)NC(=O)[C@@H](NC(=O)[C@H](Cc1ccccc1)NC(=O)[C@@H](NC(=O)CNC(=O)[C@H](CCC(=O)O)NC(=O)[C@@H](C)NC(=O)[C@@H](N)Cc1ccc(O)cc1)[C@@H](C)O)[C@@H](C)CC)C(=O)N[C@@H](C)C(=O)N[C@@H](CC(C)C)C(=O)N[C@@H](CC(=O)O)C(=O)N[C@@H](CCCCN)C(=O)N[C@H](C(=O)N[C@@H](CCCNC(=N)N)C(=O)N[C@@H](CCC(N)=O)C(=O)N[C@@H](CCC(N)=O)C(=O)N[C@@H](CCC(=O)O)C(=O)N[C@@H](Cc1ccccc1)C(=O)N[C@H](C(=O)N[C@@H](CC(N)=O)C(=O)N[C@@H](Cc1c[nH]c2ccccc12)C(=O)N[C@@H](CC(C)C)C(=O)N[C@@H](CC(C)C)C(=O)N[C@@H](C)C(=O)N[C@@H](CCC(N)=O)C(=O)N[C@@H](CCCCN)C(=O)N1CCC[C@H]1C(=O)N[C@@H](CCCCN)C(=O)N[C@@H](CCCCN)C(=O)N[C@H](C(=O)N[C@@H](CCCNC(=N)N)C(=O)N[C@@H](Cc1ccc(O)cc1)C(=O)N[C@@H](CO)C(N)=O)[C@@H](C)CC)C(C)C)[C@@H](C)CC` [0601GIP4539]: the inhibition at 0.01 µM on human GIP receptor (setting [3]) turned out to be 98.7%. In addition, in assay [1], the “OGTT/GL (%)” value is reported as −12, 30%. In addition, the “Basal Glucose Lowering at Peptide Conc. of 80 nmol/kg” value in assay [2] is reported as −5%, AUC240.
Take `CC[C@H](C)[C@H](NC(=O)[C@H](CO)NC(=O)[C@H](Cc1ccc(O)cc1)NC(=O)[C@H](CC(=O)O)NC(=O)[C@H](CO)NC(=O)[C@@H](NC(=O)[C@H](Cc1ccccc1)NC(=O)[C@@H](NC(=O)CNC(=O)[C@H](CCC(=O)O)NC(=O)[C@@H](C)NC(=O)[C@@H](N)Cc1ccc(O)cc1)[C@@H](C)O)[C@@H](C)CC)C(=O)N[C@@H](C)C(=O)N[C@@H](CCSC)C(=O)N[C@@H](CC(=O)O)C(=O)N[C@@H](CCCCN)C(=O)N[C@H](C(=O)N[C@@H](Cc1c[nH]cn1)C(=O)N[C@@H](CCC(N)=O)C(=O)N[C@@H](CCC(N)=O)C(=O)N[C@@H](CC(=O)O)C(=O)N[C@@H](Cc1ccccc1)C(=O)N[C@H](C(=O)N[C@@H](CC(N)=O)C(=O)N[C@@H](Cc1c[nH]c2ccccc12)C(=O)N[C@@H](CC(C)C)C(=O)N[C@@H](CC(C)C)C(=O)N[C@@H](C)C(=O)N[C@@H](CCC(N)=O)C(=O)N[C@@H](CCCCN)C(=O)NCCC(=O)NCCC(=O)N1CCC[C@H]1C(=O)N[C@@H](CCCCN)C(=O)N[C@@H](CCCCN)C(=O)N[C@H](C(=O)N[C@@H](CCCNC(=N)N)C(=O)N[C@@H](Cc1ccc(O)cc1)C(=O)N[C@@H](CO)C(N)=O)[C@@H](C)CC)C(C)C)[C@@H](C)CC` [0601GIP4648]: the inhibition at 0.01 µM on human GIP receptor (setting [3]) turned out to be 85.1%. For the same compound, the “OGTT/GL (%)” value in assay [1] is listed as −20, 30%. In assay [2], the “Basal Glucose Lowering at Peptide Conc. of 80 nmol/kg” value was −8%, AUC240.
`CC[C@H](C)[C@H](NC(=O)[C@H](CCCCN)NC(=O)[C@H](CC(=O)O)NC(=O)[C@H](CC(C)C)NC(=O)[C@H](C)NC(=O)[C@@H](NC(=O)[C@H](CO)NC(=O)[C@H](Cc1ccc(O)cc1)NC(=O)[C@H](CC(=O)O)NC(=O)[C@H](CO)NC(=O)[C@@H](NC(=O)[C@H](Cc1ccccc1)NC(=O)[C@@H](NC(=O)CNC(=O)[C@H](CCC(=O)O)NC(=O)[C@H](C)NC(=O)[C@H](Cc1ccc(O)cc1)NC(=O)[C@@H](N)CC(C)C)[C@@H](C)O)[C@@H](C)CC)[C@@H](C)CC)C(=O)N[C@@H](C)C(=O)N[C@@H](CCC(N)=O)C(=O)N[C@@H](CCC(N)=O)C(=O)N[C@@H](CCC(=O)O)C(=O)N[C@@H](Cc1ccccc1)C(=O)N[C@H](C(=O)N[C@@H](CC(N)=O)C(=O)N[C@@H](Cc1c[nH]c2ccccc12)C(=O)N[C@@H](CC(C)C)C(=O)N[C@@H](CC(C)C)C(=O)N[C@@H](C)C(=O)N[C@@H](CCC(N)=O)C(=O)N[C@@H](CCCCN)C(=O)N1CCC[C@H]1C(=O)N[C@@H](CCCCN)C(=O)N[C@@H](CCCCN)C(=O)N[C@H](C(=O)N[C@@H](CCCNC(=N)N)C(=O)N[C@@H](Cc1ccc(O)cc1)C(=O)N[C@@H](CO)C(N)=O)[C@@H](C)CC)C(C)C` [0601GIP4803]: the inhibition at 0.01 µM on human GIP receptor (setting [4]) and at human GIP receptor (setting [3]) was 89.9% each time. Further, the “OGTT/GL (%)” value in assay [1] was −16, %.
Take `CC[C@H](C)[C@H](NC(=O)CNC(=O)[C@H](CCCCN)NC(=O)[C@H](Cc1c[nH]c2ccccc12)NC(=O)[C@H](CC(C)C)NC(=O)[C@@H](NC(=O)[C@H](Cc1ccccc1)NC(=O)CNC(=O)[C@H](CCCCN)NC(=O)[C@H](CCC(N)=O)NC(=O)[C@H](C)NC(=O)[C@H](CC(C)C)NC(=O)[C@H](CC(C)C)NC(=O)[C@H](Cc1c[nH]c2ccccc12)NC(=O)[C@H](CC(N)=O)NC(=O)[C@@H](NC(=O)[C@H](Cc1ccccc1)NC(=O)[C@H](CC(=O)O)NC(=O)[C@H](CCC(N)=O)NC(=O)[C@H](CCC(N)=O)NC(=O)[C@H](Cc1c[nH]cn1)NC(=O)[C@@H](NC(=O)[C@H](CCCCN)NC(=O)[C@H](CC(=O)O)NC(=O)[C@H](CCSC)NC(=O)[C@H](C)NC(=O)[C@@H](NC(=O)[C@H](CO)NC(=O)[C@H](Cc1ccc(O)cc1)NC(=O)[C@H](CC(=O)O)NC(=O)[C@H](CO)NC(=O)[C@@H](NC(=O)[C@H](Cc1ccccc1)NC(=O)[C@@H](NC(=O)CNC(=O)[C@H](CCC(=O)O)NC(=O)[C@@H](C)NC(=O)[C@@H](N)Cc1ccc(O)cc1)[C@@H](C)O)[C@@H](C)CC)[C@@H](C)CC)[C@@H](C)CC)C(C)C)C(C)C)C(=O)N[C@@H](CCC(N)=O)C(N)=O` [Compound 0601GIP4619]: the inhibition at 0.01 µM on human GIP receptor (setting [3]) was 84.6%.
Regarding `CC[C@H](C)[C@H](NC(=O)[C@H](CO)NC(=O)[C@H](Cc1ccc(O)cc1)NC(=O)[C@H](CC(=O)O)NC(=O)[C@H](CO)NC(=O)[C@@H](NC(=O)[C@H](Cc1ccccc1)NC(=O)[C@@H](NC(=O)CNC(=O)[C@H](CCC(=O)O)NC(=O)CNC(=O)[C@@H](N)Cc1c[nH]cn1)[C@@H](C)O)[C@@H](C)CC)C(=O)N[C@@H](C)C(=O)N[C@@H](CCSC)C(=O)N[C@@H](CC(=O)O)C(=O)N[C@@H](CCCCN)C(=O)N[C@H](C(=O)N[C@@H](Cc1c[nH]cn1)C(=O)N[C@@H](CCC(N)=O)C(=O)N[C@@H](CCC(N)=O)C(=O)N[C@@H](CC(=O)O)C(=O)N[C@@H](Cc1ccccc1)C(=O)N[C@H](C(=O)N[C@@H](CC(N)=O)C(=O)N[C@@H](Cc1c[nH]c2ccccc12)C(=O)N[C@@H](CC(C)C)C(=O)N[C@@H](CC(C)C)C(=O)N[C@@H](C)C(=O)N[C@@H](CCC(N)=O)C(=O)N[C@@H](CCCCN)C(=O)N1CCC[C@H]1C(=O)N[C@@H](CCCCN)C(=O)N[C@@H](CCCCN)C(=O)N[C@H](C(=O)N[C@@H](CCCNC(=N)N)C(=O)N[C@@H](Cc1ccc(O)cc1)C(=O)N[C@@H](CO)C(N)=O)[C@@H](C)CC)C(C)C)[C@@H](C)CC` [Compound 0601GIP4839], the inhibition at 0.01 µM on human GIP receptor (setting [4]) is 23.9%.
On to `CC[C@H](C)[C@H](NC(=O)[C@H](CCCCN)NC(=O)[C@H](CC(=O)O)NC(=O)[C@H](CC(C)C)NC(=O)[C@H](C)NC(=O)[C@@H](NC(=O)[C@H](CO)NC(=O)[C@H](Cc1ccc(O)cc1)NC(=O)[C@H](CC(=O)O)NC(=O)[C@H](CO)NC(=O)[C@@H](NC(=O)[C@H](Cc1ccccc1)NC(=O)[C@@H](NC(=O)CNC(=O)[C@H](CCC(=O)O)NC(=O)CNC(=O)[C@@H](N)Cc1c[nH]cn1)[C@@H](C)O)[C@@H](C)CC)[C@@H](C)CC)C(=O)N[C@@H](C)C(=O)N[C@@H](CCC(N)=O)C(=O)N[C@@H](CCC(N)=O)C(=O)N[C@@H](CCC(=O)O)C(=O)N[C@@H](Cc1ccccc1)C(=O)N[C@H](C(=O)N[C@@H](CC(N)=O)C(=O)N[C@@H](Cc1c[nH]c2ccccc12)C(=O)N[C@@H](CC(C)C)C(=O)N[C@@H](CC(C)C)C(=O)N[C@@H](C)C(=O)N[C@@H](CCC(N)=O)C(=O)N[C@@H](CCCCN)C(=O)N1CCC[C@H]1C(=O)N[C@@H](CCCCN)C(=O)N[C@@H](CCCCN)C(=O)N[C@H](C(=O)N[C@@H](CCCNC(=N)N)C(=O)N[C@@H](Cc1ccc(O)cc1)C(=O)N[C@@H](CO)C(N)=O)[C@@H](C)CC)C(C)C` [Compound 0601GIP4841], for which, at human GIP receptor (setting [4]), the inhibition at 0.01 µM stood at 56.6%.
As for “HGEGTFISDYSIALDKIRQQEFVNWLLAQKPKKIRYS-NH2 [Compound 0601GIP4842]”, on human GIP receptor (setting [4]), the inhibition at 0.01 µM came out at 40.8%.
Still for that read-out and setting: the result for “HGEGTLISDYSIAMDKIHQQDFVNWLLAQKPKKIRYS-NH2 [Compound 0601GIP4843]” reads 3%.

The values above are taken from US8497240B2 (priority 2006, dated 2013).
